One may read the inhibition as the change of the read-out against control, counted positive when it falls. What is called Ki is a dissociation constant, usually derived from enzyme kinetics or from competition with a known ligand. For orientation: minimal effective dose means the smallest amount tested that counted as effective.

Assay [1] has as its target T1, sigma receptors (Cavia porcellus, UniProt Q60492).
T1 construct: Brain tissue was prepared from male Hartley guinea pigs; from tissue; host or cells: guinea pig brain membranes
Nature of the assay: sigma receptor binding, [^3 H]-(+)-pentazocine, guinea pig brain membranes. Conditions: for inhibition at 10 µM: 2.5 h, inhibition of binding at 10 μM, [^3 H]-(+)-pentazocine approximately 0.5 nM, read-out: [^3 H] (+)-Pentazocine Percent Inhibition. As to the method: (§1) Brain tissue was prepared from male Hartley guinea pigs (Hazelton Labs, Denver, Pa.) which were anesthetized with CO2 and sacrificed by decapitation. All animal care and use procedures were in accord with the "Guide for the Care and Use of Laboratory Animals" (NIH Publ. No. 86-23, 1985). Homogenization was performed in 10 volumes (wt/vol) of 0.32 M sucrose with a Brinkmann Polytron at setting 5, 30 sec. The homogenate was centrifuged at 900×g for 10 min at 4° C., and the supernatant was collected and centrifuged at 22,000×g for 20 min at 4° C. The pellet was resuspended in 10 volumes of Tris-HCl buffer (50 mm, pH 7.4), incubated at 37° C. for 30 min, and centrifuged at 22,000×g for 20 min at 4° C. Following this, the pellet was resuspended in Tris buffer and frozen in 5-10 mL aliquots corresponding to a tissue concentration of 100 mg/ml, at -70° C. Binding characteristics of the membranes were stable for at least one month when stored at -70° C.
On the day of the assay, membrane aliquots were thawed, resuspended in fresh Tris-HCl buffer and stored on ice until use. Each assay tube contained 100 μL of [^3 H]-(+)-pentazocine at a final concentration of approximately 0.5 nM or 100 μL of [^3 H)di(2-tolyl)guanidine (DTG) at a final concentration of approximately 4 nM, 100 μL of various concentrations of the compounds of interest, 500 μL of the tissue suspension and 300 μL of buffer to a final assay volume of 1 mL and a final tissue concentration of approximately 8 mg/tube, corresponding to approximately 0.15 mg protein/tube. Non-specific binding was defined by addition of a final concentration of 1 μM haloperidol to blank tubes for [^3 H](+)-pentazocine assay or by addition of a final concentration of 10 μM haloperidol to blank tubes for [^3 H]DTG assay. All tubes were incubated at 37° C. for 150 min in the [^3 H](+) -pentazocine assay or at 25° C. for 90 min in the [^3 H]DTG assay before termination of the reaction by rapid filtration over Whatman GF/B glass fiber filters that were presoaked in a solution of 0.5% polyethyleneimine for at least 1 hr prior to use. Filters were washed with three 4 ml volumes of cold Tris-HCl buffer.
Following addition of scintillation cocktail, samples were allowed to equilibrate for at least 4 hr. The amount of bound radioactivity was determined by liquid scintillation spectrometry using a Beckman LS 5000 TA liquid scintillation counter with an efficiency for tritium of approximately 60%. The results are reported as a percent (%) inhibition of binding at 10 μM.
(§2) Scatchard parameters and inhibition constants (Ki values) for the binding of test compounds were also calculated using the EBDA/LIGAND program (McPherson, J. Pharmacol. Meth. 1985, 14, 213-228), purchased from Elsevier/Biosoft, Inc. The Ki values are expressed as the mean or the mean ±SEM of at least two separate determinations performed in triplicate.

Assay [2] deals with sigma receptors. Nature of the assay: sigma receptor binding, [^3 H]di(2-tolyl)guanidine (DTG), guinea pig brain membranes. Conditions: inhibition of binding at 10 μM; [^3 H]DTG approximately 4 nM, 25° C., 90 min. As to the method:
as §1
On the day of the assay, membrane aliquots were thawed, resuspended in fresh Tris-HCl buffer and stored on ice until use. […]
Following addition of scintillation cocktail, samples were allowed to equilibrate for at least 4 hr. The amount of bound radioactivity was determined by liquid scintillation spectrometry using a Beckman LS 5000 TA liquid scintillation counter with an efficiency for tritium of approximately 60%. […]
as §2

The test system of assay [3] is apomorphine-induced stereotypy. Nature of the assay: apomorphine-induced stereotypy assay. Format: in vivo, mouse (male, Swiss-Webster). Conditions: test compound i.p., apomorphine 5.5 mg/kg s.c.; rated 20-30 minutes post drug treatment. As to the method:
(§3) The compound of Example 4 was tested in vivo in the apomorphine-induced climbing assay and the apomorphine-induced stereotypy assay using the following procedures:
(§4) Male, Swiss-Webster mice (Taconic Farms, Germantown, N.Y.) weight 20-30 grams were grouped housed in colony facilities for a minimum of two days prior to testing. The colony facility was maintained on a 12 hour light/dark cycle (light: 0600-1800 hours) with water and Agway Prolab 100 rat chow available ad libitum. Each mouse was given an injection of test compound i.p. followed immediately by a s.c. injection of apomorphine 5.5 mg/kg or vehicle. All drugs were administered in a volume of 10 ml/kg body weight. The mice were then placed in individual cylindrical stainless steel climbing cages; 14.5 cm tall, 12 cm in diameter, with walls consisting of 1/16" O.D. bars spaced 0.8-1.0 cm apart, and were allowed to habituate to this environment for 20 minutes. […] Briefly, a (0) was scored for absence of any stereotypic behavior, infrequent stereotypic movements were scored as (1) , a (2) was scored for permanent sniffing and a score of (3) indicated intense and continuous stereotypic behavior. Treatment means for the 10 minute totals were calculated for climbing and stereotypy. […] A minimal effective dose (MED) for inhibition was determined for each parameter based on these analyses.

Assay [4] relates to apomorphine-induced climbing. The assay can be described thus: apomorphine-induced climbing assay. The following applies: Mus musculus, ip; test compound i.p., apomorphine 5.5 mg/kg s.c.; rated 20-30 minutes post drug treatment; Dunnett's Test P<0.05; read-out: minimal effective dose (MED) for inhibition of apomorphine-induced climbing. The assay is classed as in vivo, mouse (male, Swiss-Webster). On the procedure:
as §3, §4

Setting [5] is: mean or mean ±SEM of at least two separate determinations performed in triplicate, 37° C., 150 min, read-out: [^3 H] (+)-Pentazocine Ki.

Like-named read-outs stand apart in the source and are kept apart here.

T1 sequence (Q60492 whole entry): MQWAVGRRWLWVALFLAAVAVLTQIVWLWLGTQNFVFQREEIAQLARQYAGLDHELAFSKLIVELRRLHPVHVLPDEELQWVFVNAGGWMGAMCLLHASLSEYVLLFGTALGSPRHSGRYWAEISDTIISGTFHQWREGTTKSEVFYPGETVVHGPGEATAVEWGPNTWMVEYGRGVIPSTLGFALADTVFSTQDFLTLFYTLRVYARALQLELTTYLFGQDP

In the case of `CC(C)N1CC[C@@H](C)[C@@](C)(CCCOCC2CC2)[C@@H]1C` (relative stereo) [Example 5b, 3-[3-(cyclopropylmethoxy)propyl]-2,3,4-trimethyl-1-(1-methylethyl)piperidine], the inhibition at 10 µM in assay [1] (37° C., 150 min) came to 91%. In addition, the Ki in assay [1] (setting [5]) is 435 ± 17 nM. With `CC(C)N1CC[C@@H](C)[C@@](C)(CCCO)[C@@H]1C` (relative stereo) [Example 5a, 2,3. 4-trimethyl-l-(1-methylethyl)-3-piperidinepropanol], the inhibition at 10 µM in assay [1] (37° C., 150 min) was found to be 17%. Besides, in assay [2], the “[3H]DTG Percent Inhibition” value was 30 percent (%).

On to `C=CCOCCC[C@]1(C)[C@H](C)CCN(C)[C@H]1C` (relative stereo) [Example 6], for which the inhibition at 10 µM in assay [1] (37° C., 150 min) worked out at 89%. Besides, the Ki in assay [1] (setting [5]) was determined as 559 ± 64 nM.

As to `C=CCOCC[C@]1(C)[C@H](C)CCN(Cc2ccccc2)[C@H]1C` (relative stereo) [Example 9], the inhibition at 10 µM in assay [1] (37° C., 150 min) amounted to 99%. Moreover, in assay [1] (setting [5]), the Ki is 300 ± 65 nM.

In turn, `C[C@@H]1CCN(C)[C@@H](C)[C@]1(C)CCCOCC1CC1` (relative stereo) [Example 1c, 3-[3-(cyclopropylmethoxy)propyl]1,2,3,4-tetramethylpiperidine] yielded a Ki in assay [1] of 197 ± 32 nM. Moreover, in assay [1] (37° C., 150 min), the inhibition at 10 µM amounted to 94%.

`C#CCOCCC[C@]1(C)[C@H](C)CCN(C)[C@H]1C` (relative stereo) [Example 7]: the inhibition at 10 µM in assay [1] (37° C., 150 min) is 76%.

With `C[C@@H]1CCN(Cc2ccccc2)[C@@H](C)[C@]1(C)CCO` (relative stereo) [Example 8b, 2,3,4-trimethyl-1-(phenylmethyl)-3-piperidineethanol], the inhibition at 10 µM in assay [1] (37° C., 150 min) came to 85%. Consider `CCCN1CC[C@@H](C)[C@@](C)(CCCOCC2CC2)[C@@H]1C` (relative stereo) [Example 3f, 3-[3-(cyclopropylmethoxy)propyl]-2,3,4-trimethyl-1-propylpiperidine], for which the inhibition at 10 µM in assay [1] (37° C., 150 min) came to 99%. In assay [1] (setting [5]), the inhibitory constant (Ki) was determined as 45 ± 2 nM. Consider `C[C@@H]1CCN(Cc2ccccc2)[C@@H](C)[C@]1(C)CCCOCC1CC1` (relative stereo) [Example 4, 3-[3-(cycloprolmethoxy)propyl]-2,3,4-trimethyl-1-(phenylmethyl)piperidine], for which, in assay [3], the “effect on stereotypic behavior” value is listed as “did not affect stereotypic behavior”. Further, the Ki in assay [1] (setting [5]) stood at 3.7 ± 0.4 nM. The minimal effective dose in assay [4] came out at 167 µmol/kg. As for `C[C@@H]1CCN(C)[C@@H](C)[C@]1(C)CCCO` (relative stereo) [Example 1b, 3-(1,2,3,4-tetramethyl-3-piperidine)propanol], the inhibition at 10 µM in assay [1] (37° C., 150 min) worked out at 42%. Further, the “[3H]DTG Percent Inhibition” value in assay [2] was 39 percent (%). As for `C[C@@H]1CCN(C)[C@@H](C)[C@@H]1CCCOCC1CC1` (relative stereo) [Example 2c, 3-[3-(cyclopropylmethoxy)propyl]1,2,4-trimethylpiperidine], the Ki in assay [1] (setting [5]) came to 5 ± 0.2 nM.

On to `C[C@@H]1CCN[C@@H](C)[C@]1(C)CCCO` (relative stereo) [Example 3c, 2.3.4-trimethyl-3-piperidinepropanol], for which the Ki in assay [1] (setting [5]) is 16700 nM. Also, in assay [2], the “[3H]DTG Percent Inhibition” value was 23 percent (%).

For `COCCC[C@]1(C)[C@H](C)CCN(C)[C@H]1C` (relative stereo) [Example 13, 3-(3-methoxypropyl)-1,2,3,4-tetramethylpiperidine], the Ki in assay [1] (setting [5]) amounted to 7670 nM.
